{
  "source": "patent US20020010164A1",
  "about": "“Low oxygen content compositions of 1alpha, 25-dihydroxycholecalciferol” (priority 1999, published 2002)",
  "origin": "cited, not measured here",
  "data": [
    {"smiles": "C=C1/C(=C\\C=C2/CCCC3(C)C2CCC3C(C)CCCC(C)(C)O)CC(O)CC1O", "note": "(stereo not drawn) [1α, 25-dihydroxycholecalciferol]", "values": [
      {"measurement": "solubility in organic solvents", "setting": "organic solvents", "result": "soluble"},
      {"measurement": "solubility in water", "setting": "water", "result": "practically insoluble"}
    ]}
  ]
}
